Where a name gives a salt, the structure may show the parent alone. Read-outs that look alike come from different tables or passages of the source.
Biological target: hBTK (full-length BTK, 6HIS-tag cleaved) (Homo sapiens (Human), UniProt Q06187)
Assay: BTK enzymatic activity, LANCE TR-FRET assay (Assay Method C)
Assay type: biochemical
Settings: 50 pM hBTK, 25 μM ATP
[1] = LANCE TR-FRET, class 100-1000 is given as ≧100 nM-<1 μM, read-out: IC50 Btk activity values - Assay Method C
[2] = Table D, Assay Method C (LANCE TR-FRET), read-out: IC50 BTK activity value

hBTK (full-length BTK, 6HIS-tag cleaved), sequence (Q06187 whole entry): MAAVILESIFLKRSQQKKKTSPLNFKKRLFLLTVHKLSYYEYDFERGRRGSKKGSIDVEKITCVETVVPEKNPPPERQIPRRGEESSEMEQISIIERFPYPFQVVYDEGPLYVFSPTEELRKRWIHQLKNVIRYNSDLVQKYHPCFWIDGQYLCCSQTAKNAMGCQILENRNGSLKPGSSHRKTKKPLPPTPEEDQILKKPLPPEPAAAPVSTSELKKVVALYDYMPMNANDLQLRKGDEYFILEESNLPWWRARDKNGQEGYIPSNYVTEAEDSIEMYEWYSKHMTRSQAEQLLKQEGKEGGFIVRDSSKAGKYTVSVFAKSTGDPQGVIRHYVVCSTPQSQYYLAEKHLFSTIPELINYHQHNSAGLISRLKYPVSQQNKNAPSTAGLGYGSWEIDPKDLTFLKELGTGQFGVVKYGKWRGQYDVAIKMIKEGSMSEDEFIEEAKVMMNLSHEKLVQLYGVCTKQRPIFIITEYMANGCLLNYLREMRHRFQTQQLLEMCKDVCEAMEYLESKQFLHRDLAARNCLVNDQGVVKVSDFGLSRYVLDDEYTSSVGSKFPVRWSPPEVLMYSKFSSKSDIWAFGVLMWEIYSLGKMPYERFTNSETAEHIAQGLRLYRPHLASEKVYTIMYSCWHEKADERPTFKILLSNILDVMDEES

**Q.** How did the IC50 [1] turn out when `Cc1cnc(N)c2c(-c3ccc(C(=O)Nc4cc(OC5CC5)ccn4)cc3)nc([C@@H]3CCCN(C(=O)C4CC4)C3)n12` [Example 457, 4-{8-amino-3-[(3R)-1-(cyclopropylcarbonyl)piperidin-3-yl]-5-methylimidazo[1,5-a]pyrazin-1-yl}-N-[4-(cyclopropyloxy)pyridin-2-yl]benzamide] was run?
**A.** < 10 nM

**Q.** Which IC50 [1] does the source give for `CCc1ccnc(NC(=O)c2ccc(-c3nn([C@@H]4CCCN(C(=O)C5(C)COC5)C4)c4ccnc(N)c34)cc2)c1` [Example 386, 4-(4-amino-1-{(3R)-1-[(3-methyloxetan-3-yl)carbonyl]piperidin-3-yl}-1H-pyrazolo[4,3-c]pyridin-3-yl)-N-(4-ethylpyridin-2-yl)benzamide] here?
**A.** < 10 nM

**Q.** For `CC1(C(=O)N2CCO[C@@H](c3nc(-c4ccc(C(=O)Nc5cc(C(F)(F)F)ccn5)cc4)c4c(N)ncc(C#N)n34)C2)COC1` [Example 527, 4-(8-amino-5-cyano-3-{(2R)-4-[(3-methyloxetan-3-yl)carbonyl]morpholin-2-yl}imidazo[1,5-a]pyrazin-1-yl)-N-[4-(trifluoromethyl)pyridin-2-yl]benzamide], which IC50 [1] is on record?
**A.** < 10 nM

**Q.** For `C[C@H]1CC[C@@H](c2nc(-c3ccc(C(=O)Nc4cc(OCC(F)(F)F)ccn4)cc3)c3c(N)nccn23)CN1C(=O)C1(C)COC1` [Example 418, 4-(8-amino-3-{(3R,6S)-6-methyl-1-[(3-methyloxetan-3-yl)carbonyl]piperidin-3-yl}imidazo[1,5-a]pyrazin-1-yl)-N-[4-(2,2,2-trifluoroethoxy)pyridin-2-yl]benzamide], which IC50 [1] is on record?
**A.** < 10 nM

**Q.** With `CSCCC(=O)N1CCO[C@@H](c2nc(-c3ccc(C(=O)Nc4cc(C(F)(F)F)ccn4)cc3)c3c(N)nccn23)C1` [Example 502, 4-(8-amino-3-{(2R)-4-[3-(methylsulfanyl)propanoyl]morpholin-2-yl}imidazo[1,5-a]pyrazin-1-yl)-N-[4-(trifluoromethyl)pyridin-2-yl]benzamide] as the compound, how does the IC50 [1] read?
**A.** < 10 nM

**Q.** `Cc1ccnc(NC(=O)c2ccc(-c3nc([C@@H]4CCCN(C(=O)C5(C)COC5)C4)n4c(Cl)cnc(N)c34)cc2)c1` [Example 446, 4-(8-amino-5-chloro-3-{(3R)-1-[(3-methyloxetan-3-yl)carbonyl]piperidin-3-yl}imidazo[1,5-a]pyrazin-1-yl)-N-(4-methylpyridin-2-yl)benzamide] was tested. Which IC50 [1] did it give?
**A.** < 10 nM

**Q.** Which IC50 [1] does the source give for `COc1ccnc(NC(=O)c2ccc(-c3nn([C@@H]4CCCN(C(=O)C5(C)COC5)C4)c4ccnc(N)c34)cc2)c1` [Example 388, 4-(4-amino-1-{(3R)-1-[(3-methyloxetan-3-yl)carbonyl]piperidin-3-yl}-1H-pyrazolo[4,3-c]pyridin-3-yl)-N-(4-methoxypyridin-2-yl)benzamide] here?
**A.** < 10 nM

**Q.** How did the IC50 [1] turn out when `C[C@H]1CC[C@@H](c2nc(-c3ccc(C(=O)Nc4cc(C(C)(F)F)ccn4)cc3)c3c(N)nccn23)CN1C(=O)C1(C)COC1` [Example 413, 4-(8-amino-3-{(3R,6S)-6-methyl-1-[(3-methyloxetan-3-yl)carbonyl]piperidin-3-yl}imidazo[1,5-a]pyrazin-1-yl)-N-[4-(1,1-difluoroethyl)pyridin-2-yl]benzamide] was run?
**A.** < 10 nM

**Q.** What about the IC50 [2] of the same compound?
**A.** 0.2 nM

**Q.** With `COCC(=O)N1CCC[C@@H](c2nc(-c3ccc(C(=O)Nc4cc(C(F)(F)F)ccn4)cc3F)c3c(N)nccn23)C1` [Example 575, 4-{8-amino-3-[(3R)-1-(methoxyacetyl)piperidin-3-yl]imidazo[1,5-a]pyrazin-1-yl}-3-fluoro-N-[4-(trifluoromethyl)pyridin-2-yl]benzamide, TFA salt] as the compound, how does the IC50 [1] read?
**A.** < 10 nM

**Q.** With `Nc1ncnc2c1c(-c1ccc(C(=O)Nc3cc(C(F)(F)F)ccn3)cc1)nn2[C@H]1CC[C@H](C(F)(F)F)NC1` [Example 556, 4-{4-amino-1-[(3S,6R)-6-(trifluoromethyl)piperidin-3-yl]-1H-pyrazolo[3,4-d]pyrimidin-3-yl}-N-[4-(trifluoromethyl)pyridin-2-yl]benzamide, TFA salt] as the compound, how does the IC50 [1] read?
**A.** < 10 nM

**Q.** With `CN1CC(C(=O)N2CCO[C@@H](c3nc(-c4ccc(C(=O)Nc5cc(C(F)(F)F)ccn5)cc4)c4c(N)nccn34)C2)C1` [Example 501, 4-(8-amino-3-{(2R)-4-[(1-methylazetidin-3-yl)carbonyl]morpholin-2-yl}imidazo[1,5-a]pyrazin-1-yl)-N-[4-(trifluoromethyl)pyridin-2-yl]benzamide] as the compound, how does the IC50 [1] read?
**A.** < 10 nM

**Q.** `Nc1ncc(Cl)n2c([C@H]3CN(CC(F)(F)F)CCO3)nc(-c3ccc(C(=O)Nc4cc(C(F)(F)F)ccn4)cc3)c12` [Example 526, 4-{8-amino-5-chloro-3-[(2R)-4-(2,2,2-trifluoroethyl)morpholin-2-yl]imidazo[1,5-a]pyrazin-1-yl}-N-[4-(trifluoromethyl)pyridin-2-yl]benzamide] was tested. Which IC50 [1] did it give?
**A.** < 10 nM

**Q.** For `CC1(C(=O)N2CCC[C@@H](c3nc(-c4ccc(C(=O)Nc5ncc6c(n5)CCC6)cc4)c4c(N)nccn34)C2)COC1` [Example 364, 4-(8-amino-3-{(3R)-1-[(3-methyloxetan-3-yl)carbonyl]piperidin-3-yl}imidazo[1,5-a]pyrazin-1-yl)-N-(6,7-dihydro-5H-cyclopenta[d]pyrimidin-2-yl)benzamide], which IC50 [1] is on record?
**A.** 10 to 100 nM

**Q.** Which IC50 [1] does the source give for `Cn1cc2c(n1)CCC[C@@H]2n1nc(-c2ccc(C(=O)Nc3cc(C(F)(F)F)ccn3)cc2)c2c(N)ncnc21` [Example 558, 4-{4-amino-1-[(4S)-2-methyl-4,5,6,7-tetrahydro-2H-indazol-4-yl]-1H-pyrazolo[3,4-d]pyrimidin-3-yl}-N-[4-(trifluoromethyl)pyridin-2-yl]benzamide, TFA salt] here?
**A.** < 10 nM

**Q.** For `Nc1ncc(Cl)n2c([C@@H]3CCCN(C(=O)CO)C3)nc(-c3ccc(C(=O)Nc4cc(C(F)(F)F)ccn4)cc3)c12` [Example 441, 4-{8-amino-5-chloro-3-[(3R)-1-(hydroxyacetyl)piperidin-3-yl]imidazo[1,5-a]pyrazin-1-yl}-N-[4-(trifluoromethyl)pyridin-2-yl]benzamide], which IC50 [1] is on record?
**A.** < 10 nM

**Q.** For `Nc1nccn2c([C@@H]3CCCN(C(=O)[C@@H]4CC(F)(F)CN4)C3)nc(-c3ccc(C(=O)Nc4cc(C(F)(F)F)ccn4)cc3)c12` [Example 337, 4-{8-amino-3-[(3R)-1-(4,4-difluoro-L-prolyl)piperidin-3-yl]imidazo[1,5-a]pyrazin-1-yl}-N-[4-(trifluoromethyl)pyridin-2-yl]benzamide], which IC50 [1] is on record?
**A.** < 10 nM

**Q.** For `CC1(C(=O)N2CCC[C@@](C)(c3nc(-c4ccc(C(=O)Nc5cc(C(F)(F)F)ccn5)cc4)c4c(N)nccn34)C2)COC1` [Example 438, 4-(8-amino-3-{(3R)-3-methyl-1-[(3-methyloxetan-3-yl)carbonyl]piperidin-3-yl}imidazo[1,5-a]pyrazin-1-yl)-N-[4-(trifluoromethyl)pyridin-2-yl]benzamide], which IC50 [1] is on record?
**A.** < 10 nM

**Q.** How did the IC50 [1] turn out when `Cc1ccnc(NC(=O)c2ccc(-c3nc([C@H]4CC[C@H](C(F)(F)F)N(C(=O)C5CC5)C4)n4ccnc(N)c34)cc2)c1` [Example 425, 4-{8-amino-3-[(3S,6R)-1-(cyclopropylcarbonyl)-6-(trifluoromethyl)piperidin-3-yl]imidazo[1,5-a]pyrazin-1-yl}-N-(4-methylpyridin-2-yl)benzamide] was run?
**A.** < 10 nM

**Q.** How did the IC50 [1] turn out when `Nc1nccn2c(C3CCC(C(F)(F)F)N(C(=O)C4CC4)C3)nc(-c3ccc(C(=O)Nc4cc(C(F)(F)F)ccn4)cc3F)c12` (stereo not shown) [Example 399, 4-{8-amino-3-[1-(cyclopropylcarbonyl)-6-(trifluoromethyl)piperidin-3-yl]imidazo[1,5-a]pyrazin-1-yl}-3-fluoro-N-[4-(trifluoromethyl)pyridin-2-yl]benzamide] was run?
**A.** < 10 nM

**Q.** For `COCc1cnc(N)c2c(-c3ccc(C(=O)Nc4cc(C(F)(F)F)ccn4)cc3)nc([C@@H]3CC[C@H](C)N(C(=O)C4(C)COC4)C3)n12` [Example 450, 4-[8-amino-5-(methoxymethyl)-3-{(3R,6S)-6-methyl-1-[(3-methyloxetan-3-yl)carbonyl]piperidin-3-yl}imidazo[1,5-a]pyrazin-1-yl]-N-[4-(trifluoromethyl)pyridin-2-yl]benzamide], which IC50 [1] is on record?
**A.** < 10 nM

**Q.** With `C[C@H](O)C(=O)N1CCO[C@@H](c2nc(-c3ccc(C(=O)Nc4cc(C(F)(F)F)ccn4)cc3)c3c(N)ncc(Cl)n23)C1` [Example 523, 4-(8-amino-5-chloro-3-{(2R)-4-[(2S)-2-hydroxypropanoyl]morpholin-2-yl}imidazo[1,5-a]pyrazin-1-yl)-N-[4-(trifluoromethyl)pyridin-2-yl]benzamide] as the compound, how does the IC50 [1] read?
**A.** < 10 nM

**Q.** `Nc1nccn2c([C@H]3CN[C@@H](CO)CO3)nc(-c3ccc(C(=O)Nc4cc(C(F)(F)F)ccn4)cc3)c12` [Example 546, 4-{8-amino-3-[(2R,5S)-5-(hydroxymethyl)morpholin-2-yl]imidazo[1,5-a]pyrazin-1-yl}-N-[4-(trifluoromethyl)pyridin-2-yl]benzamide] was tested. Which IC50 [1] did it give?
**A.** < 10 nM

**Q.** Which results are given for `C[C@H](O)C(=O)N1CCC[C@@H](c2nc(-c3ccc(C(=O)Nc4cc(C(F)(F)F)ccn4)cc3)c3c(N)nccn23)C1` [Example 345, 4-(8-amino-3-{(3R)-1-[(2S)-2-hydroxypropanoyl]piperidin-3-yl}imidazo[1,5-a]pyrazin-1-yl)-N-[4-(trifluoromethyl)pyridin-2-yl]benzamide]?
**A.** IC50 [1]: < 10 nM; IC50 [2]: 0.472 nM

**Q.** With `C[C@H]1CC[C@@H](c2nc(-c3ccc(C(=O)Nc4cc(C(F)(F)F)ccn4)c(F)c3)c3c(N)nccn23)CN1C(=O)C1(C)COC1` [Example 476, 4-(8-amino-3-{(3R,6S)-6-methyl-1-[(3-methyloxetan-3-yl)carbonyl]piperidin-3-yl}imidazo[1,5-a]pyrazin-1-yl)-2-fluoro-N-[4-(trifluoromethyl)pyridin-2-yl]benzamide] as the compound, how does the IC50 [1] read?
**A.** < 10 nM

**Q.** What about the IC50 [2] of the same compound?
**A.** 0.322 nM

**Q.** With `CCOCC(=O)N1CCO[C@@H](c2nc(-c3ccc(C(=O)Nc4cc(C(F)(F)F)ccn4)cc3)c3c(N)nccn23)C1` [Example 518, 4-{8-amino-3-[(2R)-4-(ethoxyacetyl)morpholin-2-yl]imidazo[1,5-a]pyrazin-1-yl}-N-[4-(trifluoromethyl)pyridin-2-yl]benzamide] as the compound, how does the IC50 [1] read?
**A.** < 10 nM
